{"source": "patent EP0642790A2", "about": "“Alkali citrates and their use as medicaments, especially against arterosclerosis” (MADAUS AG, priority 1993, dated 1995)", "key": {"[1]": {"design": "species or system Ratten (Sprague-Dawley-Ratten)", "conditions": "rat, in vivo", "excerpt": "(§1) Pentobarbital betäubten Ratten (Sprague-Dawley-Ratten) wurde die Aorta aseptisch entnommen, in acht 5 mm große Segmente geschnitten und in sterile Diffusionskammern (Fa. Millipore GmbH, Eschborn), mit einem Durchmesser von 14 mm und einer Porengröße von 0,22 µm fixiert. Jeweils 2 Kammern wurden in die Bauchhöhle einer Ratte implantiert. Die Versuchsgruppen bestanden aus mindestens 7 Ratten.\n(§2) Jedem Versuchstier wurden pro Tag 2,1 mmol Citrat oral in zwei gleichen Dosen appliziert, nach 22 Tagen die beiden Diffusionskammern entnommen und die Aorta-Abschnitte licht-, elektronenmikroskopisch, röntgenspektrographisch sowie elementar-analytisch untersucht. Zur histologischen Untersuchung wurden die Gewebeabschnitte in 8% Formalin fixiert, die Aortaabschnitte für die lichtmikroskopischen Untersuchung nach Kossa mit Hämatoxylin und Eosin gefärbt sowie diejenigen zur elektronenmikroskopischen Untersuchung in 2,5% Glutaraldehyd und anschließend in 1% Osmiumtetroxyd fixiert. Die Bestimmung der maximalen Ablagerungsschichtdicke erfolgte mittels Okularmikrometer und die Flächenausdehnung der Ablagerungsschicht der jeweiligen Aortasegmente wurden nach bekannten Methoden ermittelt.\nDer Umstand, daß Alkalicitrate ohne Nebenwirkungen im Gegensatz zu bekannten o.g. Medikamente auf die Nierentätigkeit ist, ergibt sich auch aus der Bestimmung der Urinzusammensetzung [Tabelle (2B)). Die Konzentrationen von beispielsweise cAMP unterschieden sich nur unwesentlich von denen der Kontrolle."}, "[2]": {"test_system": "Ablagerungen in Aortasegmenten", "experiment": "Calcification (deposit formation) of rat aorta segments in diffusion chambers implanted into the abdominal cavity of rats; histology and morphometry", "type": "in vivo, Ratten (Sprague-Dawley-Ratten)", "conditions": "for Fläche (Flächenausdehnung der Ablagerungen) / Minimierung der Flächenausdehnung der Ablagerungen im Vergleich zur Kontrolle: 2,1 mmol Citrat per day orally; for Fläche (Flächenausdehnung der Ablagerungen) / Dicke (Ablagerungsschichtdicke) / Minimierung der Flächenausdehnung der Ablagerungen im Vergleich zur Kontrolle: 22 days; for Fläche (Flächenausdehnung der Ablagerungen): Kontrolle 240; for histologisch-lichtmikroskopische Untersuchung der Querschnitte der Aortaabschnitte: Kontrolle: pronounced deposit formation; for Abnahme der Ablagerungsschichtdicke im Vergleich zu der Kontrolle (Faktor): factor versus Kontrolle (55 µm); for relative Volumina %: relative to Kontrolle = 100; for relative Volumina: thickness multiplied by area, Kontrolle 13200; for Dicke (Ablagerungsschichtdicke): 2,1 mmol Citrat per day orally in two doses, maximal deposit layer thickness by ocular micrometer, Kontrolle 55", "excerpt": "as §1\nFolgende wäßrige Citrat-Lösungen wurden oral appliziert:\nas §2"}, "[3]": {"test_system": "Aortasegmenten", "experiment": "Mineral content and calcium/phosphorus quotient in the implanted aorta segments", "type": "in vivo, Ratten (Sprague-Dawley-Ratten)", "conditions": "for Calcium, Konzentration in Aortasegmenten: mean (range of measured values), Kontrolle 4,77; for Magnesium, Konzentration in Aortasegmenten / Phosphor, Konzentration in Aortasegmenten: mean (range); for Magnesium, Konzentration in Aortasegmenten: Kontrolle 0,20; for Phosphor, Konzentration in Aortasegmenten: Kontrolle 4,47", "excerpt": "as §1, §2"}, "[4]": {"design": "species or system Ratten (Sprague-Dawley-Ratten)", "conditions": "rat, in vivo", "excerpt": "as §1, §2\nDas bedeutet, daß die Verstoffwechslung erhöhter Gaben von KNC, KC oder NC im Organismus nicht zu einer Veränderung der Serumzusammensetzung führt und daß daher die Nierenfiltration aufgrund der im Normbereich befindlichen Fraktionen der ultrafiltrierbaren und ionablen Fraktion des Serums nicht beeinträchtigt wird.\nUm die Wirkung der Applikationen von KNC, NC und KC auf den Hormonhaushalt zu überprüfen, wurde die Konzentration von PTH im Blut analysiert.", "remark": "listed apart in the source"}}, "note": "Read-outs that look alike come from different tables or passages of the source."}
{"substance": "Na₃C₆H₅O₇ x 2 H₂O [NC]", "values": [{"measurement": "Citrat", "setting": "[1]", "value": "19,7 (15,8-30,4)^2 µmol/g"}, {"measurement": "Magnesium", "setting": "[1]", "value": "4,0 (2,6-8,0)^3 µmol/mg"}, {"measurement": "cAMP", "setting": "[1]", "value": "13,5 (12,1-14,2) nmol/mg"}, {"measurement": "Fläche (Flächenausdehnung der Ablagerungen)", "setting": "[2]", "value": 159}, {"measurement": "histologisch-lichtmikroskopische Untersuchung der Querschnitte der Aortaabschnitte", "setting": "[2]", "value": "gleichmäßig verteilte ohne besondere Erhebungen gestaltete Ablagerungsschicht"}, {"measurement": "Abnahme der Ablagerungsschichtdicke im Vergleich zu der Kontrolle (Faktor)", "setting": "[2]", "value": "> 2"}, {"measurement": "relative Volumina %", "setting": "[2]", "value": 31, "unit": "%"}, {"measurement": "relative Volumina", "setting": "[2]", "value": 4134}, {"measurement": "Calcium, Konzentration in Aortasegmenten", "setting": "[3]", "value": "4,20 (2,61-10,90) mmol/g"}, {"measurement": "Magnesium, Konzentration in Aortasegmenten", "setting": "[3]", "value": "0,28 (0,20-0,33)^1 mmol/g"}, {"measurement": "Phosphor, Konzentration in Aortasegmenten", "setting": "[3]", "value": "6,35 (3,34-14,60) mmol/g"}, {"measurement": "Calcium", "setting": "[4]", "value": "2,20 (2,04-2,30)^3 mmol/l"}, {"measurement": "Calcium/ Protein", "setting": "[4]", "value": "46 (42-50) µmol/g"}, {"measurement": "Citrat", "setting": "[4]", "value": "171 (140-212) µmol/l"}, {"measurement": "Ges.CO2", "setting": "[4]", "value": "40,9 (29,6-51,8) mmol/g"}, {"measurement": "Ges.Protein", "setting": "[4]", "value": "48,3 (44,8-55,3)^2 g/l"}, {"measurement": "Kreatinin", "setting": "[4]", "value": "31,8 (30,1-33,6)^1 µmol/l"}, {"measurement": "PTH", "setting": "[4]", "value": "200-415"}, {"measurement": "arteriell-venöse pH-Wert, Konzentrationen an Gesamt-CO₂, Citrat, Magnesium und Phosphor im Blut", "setting": "[4]", "value": "nicht verändert"}, {"measurement": "pH", "setting": "[4]", "value": "7,43 (7,35-7,49)"}]}
{"substance": "K₆Na₆H₃(C₆H₅O₇)₅ x 2 H₂O [KNC]", "values": [{"measurement": "Citrat", "setting": "[1]", "value": "20,0 (13,2-30,3)^1 µmol/g"}, {"measurement": "Magnesium", "setting": "[1]", "value": "3,7 (1,4-8,0)^3 µmol/mg"}, {"measurement": "cAMP", "setting": "[1]", "value": "11,6 (9,0-15,9) nmol/mg"}, {"measurement": "Dicke (Ablagerungsschichtdicke)", "setting": "[2]", "value": 23, "unit": "µm"}, {"measurement": "Minimierung der Flächenausdehnung der Ablagerungen im Vergleich zur Kontrolle", "setting": "[2]", "value": 54, "unit": "%"}, {"measurement": "Fläche (Flächenausdehnung der Ablagerungen)", "setting": "[2]", "value": 131}, {"measurement": "histologisch-lichtmikroskopische Untersuchung der Querschnitte der Aortaabschnitte", "setting": "[2]", "value": "gleichmäßig gestaltete (ohne besondere Erhebungen), stark verringerte Plaqueschicht"}, {"measurement": "Abnahme der Ablagerungsschichtdicke im Vergleich zu der Kontrolle (Faktor)", "setting": "[2]", "value": "2,4"}, {"measurement": "relative Volumina %", "setting": "[2]", "value": 23, "unit": "%"}, {"measurement": "Ablagerungsdicke im Gegensatz zur Kontrolle", "setting": "[2]; thickness as percent of Kontrolle", "value": "< 55", "unit": "%"}, {"measurement": "relative Volumina", "setting": "[2]", "value": 3013}, {"measurement": "Magnesium in Aortasegmenten, Vergleich der Gruppen", "setting": "[3]; in words", "value": "höchsten Magnesiumanstieg"}, {"measurement": "Calcium, Konzentration in Aortasegmenten", "setting": "[3]", "value": "4,93 (3,40-7,16) mmol/g"}, {"measurement": "Phosphor, Konzentration in Aortasegmenten", "setting": "[3]", "value": "6,80 (2,09-10,51)^1 mmol/g"}, {"measurement": "Calcium", "setting": "[4]", "value": "2,27 (2,22-2,33)^1 mmol/l"}, {"measurement": "Calcium/ Protein", "setting": "[4]", "value": "45 (40-47) µmol/g"}, {"measurement": "Citrat", "setting": "[4]", "value": "164 (55-244) µmol/l"}, {"measurement": "Ges.CO2", "setting": "[4]", "value": "40,9 (36,9-45,1) mmol/g"}, {"measurement": "Ges.Protein", "setting": "[4]", "value": "50,7 (47,5-57,0)^2 g/l"}, {"measurement": "Kreatinin", "setting": "[4]", "value": "30,9 (15,9-35,4)^2 µmol/l"}, {"measurement": "PTH", "setting": "[4]", "value": "200-553"}, {"measurement": "PTH-Level im Blut, Unterschied zur Kontrolle", "setting": "[4]", "value": "keine Unterschiede"}, {"measurement": "arteriell-venöse pH-Wert, Konzentrationen an Gesamt-CO₂, Citrat, Magnesium und Phosphor im Blut", "setting": "[4]", "value": "nicht verändert"}, {"measurement": "pH", "setting": "[4]", "value": "7,39 (7,34-7,43)"}]}
{"substance": "K₃C₆H₅O₇ x 1 H₂O [KC]", "values": [{"measurement": "Citrat", "setting": "[1]", "value": "22,0 (11,3-25,0)^2 µmol/g"}, {"measurement": "Magnesium", "setting": "[1]", "value": "3,4 (1,8-9,1)^3 µmol/mg"}, {"measurement": "cAMP", "setting": "[1]", "value": "12,9 (9,9-16,0) nmol/mg"}, {"measurement": "Dicke (Ablagerungsschichtdicke)", "setting": "[2]", "value": 33, "unit": "µm"}, {"measurement": "Minimierung der Flächenausdehnung der Ablagerungen im Vergleich zur Kontrolle", "setting": "[2]", "value": 41, "unit": "%"}, {"measurement": "Fläche (Flächenausdehnung der Ablagerungen)", "setting": "[2]", "value": 98}, {"measurement": "histologisch-lichtmikroskopische Untersuchung der Querschnitte der Aortaabschnitte", "setting": "[2]", "value": "gleichmäßig verteilte ohne besondere Erhebungen gestaltete Ablagerungsschicht"}, {"measurement": "relative Volumina %", "setting": "[2]", "value": 25, "unit": "%"}, {"measurement": "relative Volumina", "setting": "[2]", "value": 3234}, {"measurement": "Calcium, Konzentration in Aortasegmenten", "setting": "[3]", "value": "5,09 (3,15-10,81) mmol/g"}, {"measurement": "Magnesium, Konzentration in Aortasegmenten", "setting": "[3]", "value": "0,28 (0,20-0,43)^2 mmol/g"}, {"measurement": "Phosphor, Konzentration in Aortasegmenten", "setting": "[3]", "value": "7,66 (2,97-17,74) mmol/g"}, {"measurement": "Calcium", "setting": "[4]", "value": "2,27 (2,20-2,43)^1 mmol/l"}, {"measurement": "Calcium/ Protein", "setting": "[4]", "value": "44 (42-46) µmol/g"}, {"measurement": "Citrat", "setting": "[4]", "value": "163 (96-248) µmol/l"}, {"measurement": "Ges.CO2", "setting": "[4]", "value": "45,0 (39,2-50,8) mmol/g"}, {"measurement": "Ges.Protein", "setting": "[4]", "value": "51,0 (48,3-53,3)^2 g/l"}, {"measurement": "Kreatinin", "setting": "[4]", "value": "31,8 (25,6-39,8) µmol/l"}, {"measurement": "PTH", "setting": "[4]", "value": "200-468"}, {"measurement": "arteriell-venöse pH-Wert, Konzentrationen an Gesamt-CO₂, Citrat, Magnesium und Phosphor im Blut", "setting": "[4]", "value": "nicht verändert"}, {"measurement": "pH", "setting": "[4]", "value": "7,39 (7,31-7,45)"}]}
